Source: article PMC11476629, “Exploring a Potential Optimization Route for Peptide Ligands of the Sam Domain from the Lipid Phosphatase Ship2” (International Journal of Molecular Sciences, 2024)
“And” between values parts separate entries of the source, which are not always exact repeats. Equal values may be shown once. Blank lines part the entries; values can stand above or below the molecule they belong to. Residues, ends and D or L forms follow the SMILES beside them. No end group written: not given here. *: point of attachment. FITC = O=C1OC2(c3ccc(O)cc3Oc3cc(O)ccc32)c2ccc(NC(=S)*)cc21; Ahx = NCCCCCC(=O)O; βAla = NCCC(=O)O

Assays:
Ship2-Sam [1] = molecular target: T1, Ship2-Sam (Homo sapiens, UniProt O15357); assay: NMR chemical shift perturbation studies with Ship2-Sam; assay type: binding; conditions: 1D 1H: Ship2-Sam 27 µM, peptide 273 µM; 1H-15N HSQC: Ship2-Sam 20 µM, peptide 200 µM; PBS, 298 K
T1 construct: The Sam (Sterile alpha motif) domain of the lipid phosphatase Ship2 (Ship2-Sam); made in house; host or cells: E. coli
T1 sequence (O15357 1196-1258 limits assumed): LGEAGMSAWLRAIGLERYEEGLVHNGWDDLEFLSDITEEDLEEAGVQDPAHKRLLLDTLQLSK
Procedure: The interaction between diverse PSscan peptides and Ship2-Sam was assessed by NMR chemical shift perturbation (CSP) studies using both 1D [^1H] and 2D [^1H-^15N] HSQC experiments (Figure 4 and Figures S7–S10).
[^1H-^15N] HSQC spectra for chemical shift perturbation studies were acquired with ^15N labeled Ship2-Sam (20 μM concentration) in the absence and presence of PSscan255, PSscan258, and PSscan266 peptides (200 μM concentrations). For these experiments, concentrated peptide stocks in PBS were diluted in protein samples. The pH was checked upon each peptide’s addition and eventually carefully adjusted with NaOH or HCl solutions to avoid pH variations in the NMR samples. Chemical shift perturbation studies with 1D [^1H] NMR experiments were similarly recorded for Ship2-Sam alone (27 μM concentration) and in the presence of PSscan peptides (273 μM concentration). Spectra under identical experimental conditions were recorded for Ship2-Sam alone and following the addition of the control peptides.

PC-3 cells = conditions: 50 µM, 4 h, fluorescence (deconvolution) microscopy
Procedure: The FITC-TAT-PSscan255 peptide (50 μM) was added for 4 h to PC-3 cells (5 × 10^4/mL) that were positioned on coverslips inside a Petri dish. Following incubation, cells were first washed three times with PBS and then fixed in 4% paraformaldehyde in PBS for 15 min. Next, cell permeabilization was achieved via treatment with 0.3% Triton-X 100 in PBS for 30 min. After blocking for 15 min with 2% bovine serum albumin, the coverslips were marked with phalloidin-iFluor 594 (Abcam, Milan, Italy), which was diluted 1:1000 for 1 h. After three extra rinses with PBS, the nuclei were stained with Hoechst 33342 (Thermo Fisher Scientific, Milan, Italy), diluted 1:2000, and incubated for 15 min in the dark. Lastly, the coverslips were mounted onto microscope slides with Mowiol (Sigma from Merck Group, Milan, Italy) and permitted to cure for at least 48 h before undergoing microscopy imaging. Images were taken with a Nikon Eclipse Ti2-E inverted research microscope (Nikon Instruments, Melville, NY, USA) using standard phase contrast, epifluorescence microscopy, and deconvolution. Image acquisition was accomplished with an Andor Zyla 4.2+ sCMOS high-sensitivity monochrome camera and managed by Nikon NIS-Elements Advanced Research (AR) image acquisition and analysis software.

[2] = Serum stability in FBS (RP-HPLC); assay type: in vitro ADME; conditions: 25% fetal bovine serum, 25% FBS, 37 °C, peptide 80 µM, RP-HPLC UV peak area, average of two assays
Procedure: The PSscan255 peptide was mixed with 25% fetal bovine serum (FBS, from Merck group, Milan, Italy), previously incubated at 37 °C for 15 min, to obtain a peptide concentration equal to 80 µM in the end. These mixtures were kept at 37 °C and, at several time intervals (0, 1, 2, 3, 4, 5, 17, and 19 h), aliquots of the incubating solutions (50 µL) were quenched by using 15% trifluoroacetic acid (TFA) (50 µL) and then incubated at 2 °C for 15 min. Next, serum proteins were discarded by centrifugation (15 min at 3000 rpm), and samples were subjected to reverse-phase high-performance liquid chromatography (RP-HPLC). RP-HPLC runs were conducted with an HPLC LC-4000 series (Jasco) equipped with a UV detector by using a C18-Kinetek column (Phenomenex, Milan, Italy). Gradient elution was conducted at 25 °C; the gradient started with buffer A, consisting of water with 0.1% TFA. Then buffer B, consisting of acetonitrile with 0.1% TFA, was added from 5 to 70% in 20 min. The peak areas were integrated at diverse time lapses. Two assays were performed, and data points represent average values over the two experiments.

Ship2-Sam [3] = molecular target: T1, Ship2-Sam; assay: BLI (BioLayer Interferometry) interaction assay; conditions: biotinylated-pegylated PSscan255 immobilized on streptavidin biosensor; Ship2-Sam 20-500 µM; 1:1 Langmuir model, global analysis; read-out: KD for binding to Ship2-Sam
Procedure: The peptide was purchased in the biotinylated–pegylated form (Table S4) and immobilized on a streptavidin-coated biosensor. Kinetic experiments, carried out at diverse Ship2-Sam concentrations in the range of 20–500 µM (Figure S19), provided dose–response signals, allowing the estimation of a KD value equal to (70 ± 40) µM.
For BLI interaction assays, the Sartorius Octet® N1 System and streptavidin (SA)-coated biosensor tips (Sartorius Italy S.r.l., Grassina-Bagno a Ripoli (FI), Italy) were employed. SA biosensor tips were first hydrated in 1X PBS buffer; then, to achieve ligand immobilization, the tips were dipped, for 300 sec with 1000 rpm agitation, into 4 µL of biotinylated–pegylated PSscan255 solution (50 µg/mL). Following peptide loading, each tip was placed in contact, for 300 s with a 1000 rpm agitation speed, with 4 µL of Ship2-Sam protein at several concentrations (20, 50, 100, 300, and 500 µM). All mathematical manipulations were handled by the Octet Analysis Studio 12.2 software from Sartorius. A 1:1 Langmuir binding model was used for data fitting, and the KDs were obtained through the global analysis mode.

[4] = Peptide self-aggregation by 1D 1H NMR at diverse concentrations; assay type: physicochemical; conditions: 1D 1H NMR in PBS/D2O (90/10 v/v), peptide 50-300 µM, constant pH
Procedure: In addition, to better understand results from NMR interaction assays, we evaluated whether peptide self-aggregation phenomena could occur in the peptide concentration range employed. Thus, NMR spectra were recorded for each PSscan peptide at diverse concentrations in the range of 50–300 µM (Figure 5, Figures S13 and S14). As all three peptides are rich in aromatic and positively charged residues, self-aggregation can occur not only through π–π stacking interactions but also through cation–π contacts between diverse peptide units. To better identify the signals of aromatic protons within 1D [^1H] NMR spectra in PBS, hydrogen/deuterium exchange experiments were conducted (Figure 5 and Figure S14). Indeed, an excess of D2O in solution induces the disappearance of HN and other exchangeable exposed protons, while aromatic and side-chain protons remain clearly visible (Figure 5 and Figure S14). When recording NMR spectra of peptides at different concentrations, particular care was also taken to keep the pH at a constant value to avoid undesired chemical shift changes.

PSscan255 = molecular target: T2, PSscan255 (synthetic construct, also: biotinylated and pegylated, positions not given here); assay: BLI
T2 chain: KREWYKFLANKRIAY

Interaction with Ship2-Sam by chemical shift perturbation (Ship2-Sam [1]): did not reveal high-affinity binding
Molecule: CSCC[C@H](NC(=O)[C@H](Cc1ccccc1)NC(=O)[C@H](CCCCN)NC(=O)[C@H](CC(=O)O)NC(=O)[C@H](CCC(=O)O)NC(=O)[C@H](CCCNC(=N)N)NC(=O)[C@H](CCCNC(=N)N)NC(=O)[C@@H](NC(=O)[C@@H]1CCCN1C(=O)CNC(C)=O)[C@@H](C)O)C(=O)N[C@@H](Cc1ccc(O)cc1)C(=O)N[C@@H](Cc1ccccc1)C(N)=O [CTRL, reference compound] (Ac-GPTRREDKFMYF-NH2)

Molecule: CC[C@H](C)[C@H](NC(=O)[C@H](CCCNC(=N)N)NC(=O)[C@H](CCCCN)NC(=O)[C@H](CC(N)=O)NC(=O)[C@H](C)NC(=O)[C@H](CC(C)C)NC(=O)[C@H](Cc1ccccc1)NC(=O)[C@H](CCCCN)NC(=O)[C@H](Cc1ccc(O)cc1)NC(=O)[C@H](Cc1c[nH]c2ccccc12)NC(=O)[C@H](CCC(=O)O)NC(=O)[C@H](CCCNC(=N)N)NC(=O)[C@H](CCCCN)NC(=O)CNC(=O)CNC(=O)[C@H](CCC(N)=O)NC(=O)[C@@H]1CCCN1C(=O)[C@@H]1CCCN1C(=O)[C@H](CCCNC(=N)N)NC(=O)[C@H](CCCNC(=N)N)NC(=O)[C@H](CCCNC(=N)N)NC(=O)[C@H](CCC(N)=O)NC(=O)[C@H](CCCNC(=N)N)NC(=O)[C@H](CCCNC(=N)N)NC(=O)[C@H](CCCCN)NC(=O)[C@H](CCCCN)NC(=O)[C@H](CCCNC(=N)N)NC(=O)CNC(=O)CCNC(=O)CCCCCNC(=S)Nc1ccc2c(c1)C(=O)OC21c2ccc(O)cc2Oc2cc(O)ccc21)C(=O)N[C@@H](C)C(=O)N[C@@H](Cc1ccc(O)cc1)C(N)=O [FITC-TAT-PSscan255] ({FITC-Ahx-βAla}-GRKKRRQRRRPPQGGKREWYKFLANKRIAY-NH2)
Cellular localization after uptake (PC-3 cells): positioned in the cytoplasm

remaining at 5 h, 80 µM ([2]; 5 h, read-out: Peptide recovered after incubation with FBS): 80%
remaining at 19 h, 80 µM ([2]; 19 h, read-out: Peptide not degraded after incubation with FBS): 50%
Kd (Ship2-Sam [3]): ~70 µM and 70 µM
Molecule: CC[C@H](C)[C@H](NC(=O)[C@H](CCCNC(=N)N)NC(=O)[C@H](CCCCN)NC(=O)[C@H](CC(N)=O)NC(=O)[C@H](C)NC(=O)[C@H](CC(C)C)NC(=O)[C@H](Cc1ccccc1)NC(=O)[C@H](CCCCN)NC(=O)[C@H](Cc1ccc(O)cc1)NC(=O)[C@H](Cc1c[nH]c2ccccc12)NC(=O)[C@H](CCC(=O)O)NC(=O)[C@H](CCCNC(=N)N)NC(=O)[C@H](CCCCN)NC(C)=O)C(=O)N[C@@H](C)C(=O)N[C@@H](Cc1ccc(O)cc1)C(N)=O [PSscan255] (Ac-KREWYKFLANKRIAY-NH2)

Interaction with Ship2-Sam by chemical shift perturbation (Ship2-Sam [1]): weakest
Molecule: CC[C@H](C)[C@H](NC(=O)[C@H](CCCNC(=N)N)NC(=O)[C@H](CCCCN)NC(=O)[C@H](CC(N)=O)NC(=O)[C@H](C)NC(=O)[C@H](CCSC)NC(=O)[C@H](Cc1ccccc1)NC(=O)[C@H](CCCCN)NC(=O)[C@H](Cc1ccc(O)cc1)NC(=O)[C@H](Cc1c[nH]c2ccccc12)NC(=O)[C@H](CC(=O)O)NC(=O)[C@H](CCCNC(=N)N)NC(=O)[C@H](CCCCN)NC(C)=O)C(=O)N[C@@H](C)C(=O)N[C@@H](Cc1ccc(O)cc1)C(N)=O [PSscan258] (Ac-KRDWYKFMANKRIAY-NH2)

Interaction with Ship2-Sam by chemical shift perturbation (Ship2-Sam [1]): weak interactions
Molecule: CC[C@H](C)[C@H](NC(=O)[C@H](CCCNC(=N)N)NC(=O)[C@H](CCCCN)NC(=O)[C@H](CC(N)=O)NC(=O)[C@H](C)NC(=O)[C@H](CCSC)NC(=O)[C@H](Cc1ccccc1)NC(=O)[C@H](CCCCN)NC(=O)[C@H](Cc1ccc(O)cc1)NC(=O)[C@H](Cc1c[nH]c2ccccc12)NC(=O)[C@H](CCC(=O)O)NC(=O)[C@H](CCCNC(=N)N)NC(=O)[C@H](CCSC)NC(C)=O)C(=O)N[C@@H](C)C(=O)N[C@@H](Cc1ccc(O)cc1)C(N)=O [PSscan266] (Ac-MREWYKFMANKRIAY-NH2)
Self-aggregation [4]: could be affected by a certain amount of self-aggregation

Kd (PSscan255): 70 µM
B1: Ship2-Sam Sam (protein)
chain: ASGLGEAGMSAWLRAIGLERYEEGLVHNGWDDLEFLSDITEEDLEEAGVQDPAHKRLLLDTLQLSK
